Results taken from patent publication US20240034761A1, “REGENERATION OF MAMMALIAN TISSUES USING SYNTHETIC IMMODULINS” (priority 2022, published 2024).
Marks after values point to notes of the source that are not given here. Ends that are not written are not given here. Peptide text beside a SMILES is read from it. * marks the point of attachment. Biotin = O=C1N[C@H]2[C@H](CS[C@H]2CCCCC(=O)*)N1

B1: immX3AVD + holoTf (immX3AVD peptide incubated with 10 ug/well holotransferrin) (peptide, part only; not given: holotransferrin, not shown: large carriers)
peptide: Biotin-KKGFYKKKQCRPSKGRKRGFCWAVD
modifications: cysteine pairing not given here; also: non-covalent mixture/complex with holotransferrin, stoichiometry not given here

Legend:
[1] = Plate binding of FITC-labelled hyaluronic acid to immobilised biotinylated peptides; details: 400 ng peptide/well, 1 ug FITC-HMW-HA, PBS; normalized to immX3 peptide binding = 100
Protocol: (§1) Effects of pH, PIP2 and size classes: Streptavidin-coated 96-well plates (G-Biosciences, St. Louis, MO) were pre-loaded with biotinylated peptides [see Example 1] at 400 ng/well, at room temperature for 60 minutes. The plate was washed with PBS buffer and then 1 ug FITC-labelled heparin or hyaluronic acid (FITC-HMW-HA) in 100 uL PBS buffer was added per well (all tests done in quadruplicate). Incubation proceeded for 90 minutes at room temperature, followed by two PBS washes. The plate was read in a standard laboratory fluorometer (488/525 nm exitation/[…]) and the counts normalized for immX3 peptide binding=100. Values statistically above background are shown in bold font. **p<0.05 versus immX3AVD.

[2] = PIP-binding membrane assay (Membrane Lipid Strips); parameters: key: —: −−− no binding; +++ strong binding; details: 400 ng peptide
Protocol: N-terminally biotinylated versions of the peptides listed below were used in various assays listed in the examples. For the two types of phosphatidylinositon phosphate (PIP)-binding assays, imm1-imm6 peptides were used.
In the PIP-binding membrane assay, 400 ng of each peptide was bound to Membrane Lipid Strips (Catalog # P-6002, Echelon Biosciences, Salt Lake City, UT) and developed according to the manufacturer's instructions. Binding to PIPs was as follows (−−− no binding; +++ strong binding): […]

[3] = Plate binding of FITC-labelled heparin to immobilised biotinylated peptides; details: 400 ng peptide/well, 1 ug FITC-heparin, PBS; normalized to immX3 peptide binding = 100
Protocol: as §1

[4] = system: THP1-Dual monocyte reporter cell line; assay: THP1-Dual myeloid cell differentiation assay (PMA protocol); assay type: cell-based, human; details: PMA 24 h, then peptide 0.33 uM or 0.66 uM 24 h; for CD169+ (AU): relative to immX3AVD = 100
Protocol: Mammalian cell differentiation assays employed the THP1-Dual monocyte reporter cell line (Invivogen Inc, San Diego, CA) seeded at 2×10e5 cells per well in 96-well plates and cultured at 37 degrees C. in RPMI-1640 growth medium plus 10% fetal bovine serum and 1% penicillin/streptomycin. Cells were subsequently treated for 24 hours with 100 ng/ml Phorbol 12-myristate 13-acetate (PMA protocol; Cayman Chemical Company, Ann Arbor, MI). Peptide (0.33 uM or 0.66 uM, as indicated) was then added, and incubation continued for an additional 24 hours. Culture supernatants were assayed for CCL22. Plates with adherent cells were washed with PBS and assayed for immunoreactivity of surface markers such as CD169, Clec9a or Clec12a using fuorescent tag- or biotin-labeled anti-human antibodies purchased from Miltenyi Biotec (Auburn, CA) and the secondary detection reagent recommended by the manufacturer.

[5] = Plate assay: biotinylated peptide on streptavidin plates, FITC-labelled PIP2; assay type: binding; details: 400 ng peptide per well; for FITC-PIP2 fluorescence, Background Control: EDTA background; for FITC-PIP2 fluorescence, Ferric Iron: with ferric iron; for FITC-PIP2 fluorescence, Zinc: with zinc
Protocol: In the plate assay, biotinylated peptides imm3 and imm5 were bound to 96-well, streptavidin-coated plates (BioLegend corporaton, San Diego, CA) at 400 ng per well in PBS buffer at room temperature for 60 mins. Plates were washed in PBS and developed with FITC-labelled PIP2 (purchased from Cayman Chemical Co, Ann Arbor, MI). Fluorescence was counted in a laboratory fluorescence spectrophotometer. The results were as follows (EDTA background set to =100; **p<0.01 vs background control): […]

[6] = system: HFF-1 human fibroblast cell line; assay: Collagen stimulating activity in HFF-1 dermal fibroblasts (Collagen-1 ELISA); assay type: cell-based; details: peptide 2 uM, 72 hour; control (buffer) set to 100
Protocol: Immodulin peptides have potential untility in the field of cosmetics. HFF-1 human fibroblast cell line was obtained from the American Type Culture Collection (ATCC). Cells were grown in a T-75 flask in DMEM Medium containing 10% fetal bovine serum and penicillin-streptomycin at 37° C. in a humidified, 5% CO2 incubator. Cells ([…], 2,000 cells/well) were plated in a 96-well plate and incubated overnight at 37° C. in a humidified, 5% CO2 incubator. Next day, […] of compounds were added (quadruplicate wells). After 72 hour incubation with the compound, supernatants were collected for Collagen-1 ELISA assay and cell viability was measured in a luminometer after the addition of […] CellTiterGlo reagent (Promega Inc, Madison, WI) as recommended by the manufacturer. Collagen stimulating activity of immodulin peptides in HFF-1 dermal fibroblasts: Peptides were added to cells at 2 uM. Collagen-1A1 (COL1) immunoreactivity was measured in the supernatants of cultured cells by ELISA using a rabbit monoclonal anti-COL1 primary antibody (Abcam, Cambridge, MA). Control (buffer) value of immunoreactivity was set to 100.

[7] = target: pure recombinant CD44 protein (Abcam); assay: plate assay, biotin-peptide on streptavidin plate, pH 5.2, no hyaluronan (CONTROL), 100 ng/well CD44, anti-CD44 mAb/TMB detection
[8] = target: pure recombinant CD44 protein (Abcam); assay: plate assay, pH 5.2, peptide pre-bound with 10 ug/well HMW-hyaluronan (CD44 capture through HA), anti-CD44 mAb/TMB detection
[9] = target: pure recombinant CD44 protein (Abcam); assay: plate assay, pH 5.2, peptide pre-bound with 10 ug/well LMW-hyaluronan (CD44 capture through HA), anti-CD44 mAb/TMB detection
[10] = target: pure recombinant CD44 protein (Abcam); assay: plate assay, pH 7.4, peptide pre-bound with 1.5 ug/well HMW-hyaluronan (CD44 capture through HA), anti-CD44 mAb/TMB detection; reference set to 100
[11] = target: pure recombinant CD44 protein (Abcam); assay: plate assay, pH 7.4, peptide pre-bound with 10 ug/well HMW-hyaluronan (CD44 capture through HA), anti-CD44 mAb/TMB detection
[12] = target: pure recombinant CD44 protein (Abcam); assay: plate assay, pH 7.4, peptide pre-bound with 10 ug/well LMW-hyaluronan (CD44 capture through HA), anti-CD44 mAb/TMB detection
[13] = target: pure recombinant CD44 protein (Abcam); assay: plate assay, pH 5.2, peptide pre-bound with 1.5 ug/well HMW-hyaluronan (CD44 capture through HA), anti-CD44 mAb/TMB detection; reference set to 100
[14] = target: pure recombinant CD44 protein (Abcam); assay: plate assay, biotin-peptide on streptavidin plate, pH 7.4, no hyaluronan (CONTROL), 100 ng/well CD44, anti-CD44 mAb/TMB detection
[15] = target: pure recombinant CD44 protein (Abcam); assay: plate assay, pH 5.2, peptide + 10 ug/well holotransferrin + 10 ug/well HMW-hyaluronan (CD44 capture through HA), anti-CD44 mAb/TMB detection
[16] = target: pure recombinant CD44 protein (Abcam); assay: plate assay, pH 7.4, peptide + 10 ug/well holotransferrin + 10 ug/well HMW-hyaluronan (CD44 capture through HA), anti-CD44 mAb/TMB detection
[17] = target: pure recombinant CD44 protein (Abcam); assay: plate assay, pH 5.2, peptide + 10 ug/well holotransferrin, no hyaluronan (CONTROL), 100 ng/well CD44, anti-CD44 mAb/TMB detection
[18] = target: pure recombinant CD44 protein (Abcam); assay: plate assay, pH 7.4, peptide + 10 ug/well holotransferrin + 10 ug/well LMW-hyaluronan (CD44 capture through HA), anti-CD44 mAb/TMB detection
[19] = target: pure recombinant CD44 protein (Abcam); assay: plate assay, pH 5.2, peptide + 10 ug/well holotransferrin + 10 ug/well LMW-hyaluronan (CD44 capture through HA), anti-CD44 mAb/TMB detection
[20] = target: pure recombinant CD44 protein (Abcam); assay: plate assay, pH 7.4, peptide + 10 ug/well holotransferrin + 1.5 ug/well HMW-hyaluronan (CD44 capture through HA), anti-CD44 mAb/TMB detection
[21] = target: pure recombinant CD44 protein (Abcam); assay: plate assay, pH 5.2, peptide + 10 ug/well holotransferrin + 1.5 ug/well HMW-hyaluronan (CD44 capture through HA), anti-CD44 mAb/TMB detection
[22] = target: pure recombinant CD44 protein (Abcam); assay: plate assay, pH 7.4, peptide + 10 ug/well holotransferrin, no hyaluronan (CONTROL), 100 ng/well CD44, anti-CD44 mAb/TMB detection

pure recombinant CD44 protein (Abcam), sequence (P16070 whole entry): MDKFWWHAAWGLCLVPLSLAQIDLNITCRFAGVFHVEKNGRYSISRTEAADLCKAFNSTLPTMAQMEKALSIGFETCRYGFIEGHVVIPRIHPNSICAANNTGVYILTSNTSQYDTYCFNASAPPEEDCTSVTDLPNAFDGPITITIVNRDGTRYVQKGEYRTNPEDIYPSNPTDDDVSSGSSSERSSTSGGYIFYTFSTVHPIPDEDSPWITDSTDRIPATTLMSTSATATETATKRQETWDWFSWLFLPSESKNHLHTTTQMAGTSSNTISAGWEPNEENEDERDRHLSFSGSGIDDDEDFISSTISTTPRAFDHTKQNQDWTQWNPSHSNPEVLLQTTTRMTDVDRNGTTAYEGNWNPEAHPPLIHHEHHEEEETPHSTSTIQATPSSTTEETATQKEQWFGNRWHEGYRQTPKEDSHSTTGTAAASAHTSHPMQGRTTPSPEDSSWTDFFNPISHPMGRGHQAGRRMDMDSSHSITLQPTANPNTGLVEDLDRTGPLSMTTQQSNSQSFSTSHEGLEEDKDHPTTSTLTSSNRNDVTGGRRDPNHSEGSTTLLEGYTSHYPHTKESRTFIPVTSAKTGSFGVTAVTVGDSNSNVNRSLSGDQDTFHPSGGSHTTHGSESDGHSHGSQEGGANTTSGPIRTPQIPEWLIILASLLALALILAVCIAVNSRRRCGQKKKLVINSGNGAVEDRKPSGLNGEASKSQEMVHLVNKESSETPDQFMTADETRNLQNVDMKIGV

Molecule | Hyaluronate binding (fluorescence counts) [1] | Binding to Phosphatidylinositol [2] | Binding to PtdIns(4)P [PIP1] [2] | Binding to PtdIns(4,5)P [PIP2] [2] | Heparin binding (fluorescence counts) [3] | CD169+ (AU) [4] [AU] | FITC-PIP2 fluorescence, Background Control [5] | FITC-PIP2 fluorescence, Ferric Iron [5] | FITC-PIP2 fluorescence, Zinc [5] | COL1 (Collagen-1A1 immunoreactivity in supernatant) [6] | also measured
N=C(N)NCCC[C@H](NC(=O)CNC(=O)[C@H](CCCCN)NC(=O)[C@H](CO)NC(=O)[C@@H]1CCCN1C(=O)[C@H](CCCNC(=N)N)NC(=O)[C@H](CS)NC(=O)[C@H](CCC(N)=O)NC(=O)[C@H](CCCCN)NC(=O)[C@H](CCCCN)NC(=O)[C@H](CCCCN)NC(=O)[C@H](Cc1ccc(O)cc1)NC(=O)[C@H](Cc1ccccc1)NC(=O)CNC(=O)[C@H](CCCCN)NC(=O)[C@@H](N)CCCCN)C(=O)N[C@@H](CCCCN)C(=O)N[C@@H](CCCNC(=N)N)C(=O)NCC(=O)N[C@@H](Cc1ccccc1)C(=O)N[C@@H](CS)C(=O)N[C@@H](Cc1c[nH]c2ccccc12)C(=O)O [imm3] (H-KKGFYKKKQCRPSKGRKRGFCW-OH) | 57.2 ± 5.7** | — | — | +++ | 104.2 ± 22.0 | 27.8 ± 3.0 | 1.0 ± 0.8 | 26.2 ± 5.7** | 4.7 ± 1.3** | 101 | CCL22 ([4]; culture supernatant): 55.3 ± 16.1 pg/mL
CC(C)C[C@H](NC(=O)[C@H](C)NC(=O)[C@@H]1CCCN1C(=O)[C@H](Cc1c[nH]cn1)NC(=O)[C@H](CS)NC(=O)[C@H](CCC(N)=O)NC(=O)[C@H](CCCCN)NC(=O)[C@@H]1CCCN1C(=O)[C@H](Cc1c[nH]cn1)NC(=O)[C@H](Cc1ccccc1)NC(=O)[C@H](CC(N)=O)NC(=O)CNC(=O)[C@H](CC(N)=O)NC(=O)[C@@H](N)CCCNC(=N)N)C(=O)N[C@@H](CC(=O)O)C(=O)NCC(=O)N[C@@H](CCC(N)=O)C(=O)N[C@@H](CCCNC(=N)N)C(=O)NCC(=O)N[C@@H](CCCCN)C(=O)N[C@@H](CS)C(=O)N[C@@H](Cc1c[nH]c2ccccc12)C(=O)O [imm4] (H-RNGNFHPKQCHPALDGQRGKCW-OH) | 14.6 ± 22.6 | — | — | — | 6.8 ± 24.1 | 3.8 ± 1.1 |  |  |  | 105 | Binding to PtdIns(3,4,5)P [PIP3] [2]: —
CC[C@H](C)[C@H](NC(=O)CNC(=O)[C@H](CCCNC(=N)N)NC(=O)[C@H](CCCCN)NC(=O)[C@H](CCCNC(=N)N)NC(=O)CNC(=O)[C@H](CCCNC(=N)N)NC(=O)[C@H](CO)NC(=O)[C@@H]1CCCN1C(=O)[C@H](CCCCN)NC(=O)[C@H](CS)NC(=O)[C@H](CCC(N)=O)NC(=O)[C@H](CCCCN)NC(=O)[C@H](CCCNC(=N)N)NC(=O)[C@H](CCCCN)NC(=O)[C@H](Cc1ccc(O)cc1)NC(=O)[C@H](Cc1ccccc1)NC(=O)CNC(=O)[C@H](CCCCN)NC(=O)[C@@H](N)CCCNC(=N)N)C(=O)N[C@@H](CS)C(=O)N[C@@H](Cc1c[nH]c2ccccc12)C(=O)O [imm5] (H-RKGFYKRKQCKPSRGRKRGICW-OH) | 60.0 ± 8.6** | — |  | +++ | 95.1 ± 25.7 | 36.5 ± 3.0 | 1.8 ± 0.5 | 23.4 ± 3.5** | 5.0 ± 1.2** | 93 | 
Biotin-KKGFYKKKQCRPSKGRKRGFCWAVD (cysteine pairing not given here) [immX3AVD peptide (N-terminally biotinylated, bound to streptavidin-coated plate)] |  |  |  |  |  |  |  |  |  |  | CD44 immunoreactivity (AU) (AU (immX3AVD + 1.5 ug HMW-HA = 100)) [7]: 13.2; CD44 immunoreactivity (AU) (AU (immX3AVD + 1.5 ug HMW-HA = 100)) [8]: 105; CD44 immunoreactivity (AU) (AU (immX3AVD + 1.5 ug HMW-HA = 100)) [9]: 103; CD44 immunoreactivity (AU) (AU (immX3AVD + 1.5 ug HMW-HA = 100)) [10]: 100; CD44 immunoreactivity (AU) (AU (immX3AVD + 1.5 ug HMW-HA = 100)) [11]: 101; CD44 immunoreactivity (AU) (AU (immX3AVD + 1.5 ug HMW-HA = 100)) [12]: 103; CD44 immunoreactivity (AU) (AU (immX3AVD + 1.5 ug HMW-HA = 100)) [13]: 100; CD44 immunoreactivity (AU) (AU (immX3AVD + 1.5 ug HMW-HA = 100)) [14]: 19.6
B1 |  |  |  |  |  |  |  |  |  |  | CD44 immunoreactivity (AU) (AU (immX3AVD + 1.5 ug HMW-HA = 100)) [15]: 94.8; CD44 immunoreactivity (AU) (AU (immX3AVD + 1.5 ug HMW-HA = 100)) [16]: 107; CD44 immunoreactivity (AU) (AU (immX3AVD + 1.5 ug HMW-HA = 100)) [17]: 12; CD44 immunoreactivity (AU) (AU (immX3AVD + 1.5 ug HMW-HA = 100)) [18]: 38.7; CD44 immunoreactivity (AU) (AU (immX3AVD + 1.5 ug HMW-HA = 100)) [19]: 27.4; CD44 immunoreactivity (AU) (AU (immX3AVD + 1.5 ug HMW-HA = 100)) [20]: 98.3; CD44 immunoreactivity (AU) (AU (immX3AVD + 1.5 ug HMW-HA = 100)) [21]: 103; CD44 immunoreactivity (AU) (AU (immX3AVD + 1.5 ug HMW-HA = 100)) [22]: 3.1
